Where a name gives a salt, the structure may show the parent alone. Read-outs that look alike come from different tables or passages of the source.
Legend:
[1] = system: isolierten Meerschweinchenvorhof; conditions: known antidepressants, stated as contrast; cited from earlier work
Sozialkonflikt-Test = test: Social conflict test in the rat; assay type: in vivo, Ratte; conditions: po, peroral, lowest dose with anxiolytic effect, read-out: anxiolytische Wirkung nach peroraler Verabreichung von Dosen ab
Procedure: (§1) Die Verbindungen der allgemeinen Formel I und ihre Säureadditionssalze besitzen wertvolle psychopharmakologische Eigenschaften. Insbesondere wirken sie antagonistisch gegenüber der durch Reserpin induzierten Hypothermie, z.B. bei intraperitonealer oder peroraler Applikation an der Ratte, [vgl. Benz und Waser, Arzneimittelforsch. 21 (5) 654 (1971)] im Dosenbereich von 10 bis 100 mg/kg, und gegenüber der durch Tetrabenazin induzierten Ptosis bei intraperitonealer oder peroraler Applikation an der Ratte [vgl. Rubin et al., J. Pharmacol. exptl. Ther. 120, 125 (1957)] im Dosenbereich von 3 bis 100 mg/kg. Beispielsweise beträgt die ED50 von 4,5-Dihydro-2-[(dimethylamino)-methyl]-5-phenyl-1,2,4-triazolo[1,5-a]chinoxalin-hydrochlorid im zweitgenannten Test 3-10 mg/kg per os und 10 mg/kg i.p.. Im Sozialkonflikt-Test an der Ratte zeigen die Verbindungen der allgemeinen Formel I, wie die vorgenannte, anxiolytische Wirkung nach peroraler Verabreichung von Dosen ab 1 mg/kg. […] Die Toxizität der Verbindungen der allgemeinen Formel I ist im Vergleich zu den erwünschten pharmakologischen Wirkungen niedrig. Diese Eigenschaften kennzeichnen die Verbindungen der allgemeinen Formel I als Antidepressiva und Anxiolytica, die zur Behandlung von Depressionen Verwendung finden können.

[2] = system: isolierten Meerschweinchenvorhof; test: Isolated guinea pig atrium, inotropic and chronotropic effect; parameters: species or system Meerschweinchen
[3] = system: durch Tetrabenazin induzierten Ptosis; test: Antagonism of tetrabenazine-induced ptosis in the rat (Rubin et al.); assay type: in vivo, Ratte
Procedure: as §1

SMILES	chronotrope Wirkung [1]	inotrope Wirkung [1]	minimal effective dose (Sozialkonflikt-Test) [mg/kg]	chronotrope Wirkung [2]	inotrope Wirkung [2]	ED50 ([3]; ip) [mg/kg]	ED50 ([3]; po, per os) [mg/kg]
CN(C)CCCN1c2ccccc2CCc2ccccc21 [Imipramin]	positiv chronotropen	eher negativ inotropen	–	–	–	–	–
CN(C)Cc1nc2n(n1)-c1ccccc1N(c1ccccc1)C2 [4,5-Dihydro-2-[(dimethylamino)-methyl]-5-phenyl-1,2,4-triazolo[1,5-a]chinoxalin-hydrochlorid]	–	–	≥ 1	schwach negativ chronotrope	schwach positiv inotrope	10	3 to 10
